Reference: US20040229772A1, “Peptides responsive to antibodies against consensus peptide of the CS4-CFA/I family proteins” (priority 1996, published 2004)

Legend:
Type in all cases: binding
[1] = tested on: antibodies raised to the consensus peptide; assay: ELISA of 8-mer peptides with rabbit antibodies; details: for reactivity of 8-mer peptides with antibodies from the rabbits: rabbit antibodies raised to consensus peptide SEQ ID NO:1, biotin-SGSG-peptide on streptavidin; for interaction of peptides with the antibodies raised to the consensus peptide: rabbit antibodies raised to consensus peptide SEQ ID NO:1
Protocol: (§1) Blocks of pins for cleavable syntheses were obtained from Chiron Mimotopes U.S. Peptide synthesis was carried out according to the manufacturer's instructions using Opfp-derivatized amino acids. Peptides of length 8 with 7 overlap were manufactured in order to locate all linear epitopes in the sequence with a highest redundancy. […] Peptides were cleaved from the pins using 0.1 M phosphate buffer, pH 8.0, containing 40% acetonitrile. Two peptides were made and sacrificed for amino acid analysis as proof of peptide purity. A dinitrophenol (DNP) pin was included so that the efficiency of the cleavage could be monitored spectrophotometrically.
(§2) For blocking, a composition containing 5% nonfat dry milk in PBS+0.2% sodium azide was used. Stock streptavidin (Calbiochem Corp., La Jolla, Calif.) at 1 mg/ml in water was kept frozen in aliquots for up to several months. On the day of use, the stock streptavidin was diluted in phosphate buffered saline (PBS) to provide a concentration of 5 μg/ml streptavidin. Goat F(ab′)2 anti-mouse, anti-rabbit and anti-human sera were labeled with alkaline phosphatase (Biosource, International, Camarillo, Calif.).
(§3) Streptavidin was plated at 5 μg/ml, 50 μl per well, and incubated over night at 4° C. Plates were then washed by hand (Nunc Immunowash 12 hand plate washer. Fisher Scientific, Pittsburgh, Pa.) three times with PBS/0.1% TWEEN 20™. Peptides were then diluted to 10 μg/ml in PBS and plated at 50-μl/well. After incubation for one hour at room temperature followed by washing, the peptides were incubated with sera diluted in blocker at appropriate concentrations (5% nonfat dry milk) for 2 hours at room temperature. After washing the wells, 50 μl of phosphatase-labeled anti-serum IgG diluted 1:1000 in blocker was added to each well and was allowed to incubate at room temperature for 1 hour. The plates were washed. The 100 μl of PNDP (p-nitrophenylphosphate) substrate, prepared according to the manufacturer's instructions, was added to each well. Results were read at 5, 15 and 60 minutes using a microtiter plate reader (UVmax™, Moelcular Devices, Sunnyvale, Calif.).
Antibodies from the rabbits were then tested against the specific 8-mer peptides obtained from SEQ ID NO:1 in the manner disclosed above to determine the binding sites of the antibodies in the sera with the consensus peptide.

[2] = tested on: Antibody to CS4; assay: ELISA of 8-mer peptides (pins) with rabbit serum; details: a listed pin number means recognized
Protocol: as §1, §2, §3
(§4) Partially to fully purified colonization factor (40% to 100% pure) was run on SDS-PAGE gel (5-15 μg/lane of 10 comb gel (precast 10 comb, 1 mm thickness, Tris-tricene gel from Novex, San Diego, Calif.), for primary immunization run 9 lanes for each rabbit (45-135 μg CF protein with ½ the amount used in the primary immunization used as a booster). The gel was stained with 0.5% COOMASSIE BLUE™ (BioRad, Richmond, Calif.) in water for 1 hour, then destained with multiple changes of water for 60-90 minutes. The colonization factor bands were excised with a scalpel and the excess gel trimmed. The bands were stored at −20° C. until use.
(§5) After removal from freezer, the gel slices were transferred to a glass tissue homogenizer using a teflon pestle with grooves at the tip. The slices were ground with 0.3 ml phosphate buffered saline (PBS). The drill was run to homogenize the gel for 30 to 45 seconds. (In the instant case, a pestle with a shaft of steel was used which allowed placement of the pestle into the chuck of the hand-held drill.)
(§6) The homogenate was transferred to 16 mm×150 mm test tubes with disposable plastic transfer pipet. The pestle and homogenizer vessel was rinsed repeatedly with PBS and the contents transferred to the 16×150 test tube until a volume of 1.2 ml was obtained.
(§7) The sample obtained above was placed in a vortex mixer and vortexed on high. Freund's adjuvant 1.2 ml was added. (Complete Freund's was used for the primary immunization, while incomplete Freund's was used for the boost.) The composition was vortexed until a thick emulsion of almost a butter consistency was obtained (12-20 minutes).
(§8) A preimmune serum was obtained on all animals, which were then immunized with the 1 ml of the emulsion subcutaneously at 4-6 spots on the shoulders and rump. The animals were boosted three weeks later, then bleed 10 days after the booster shots. […]

[3] = tested on: Antibody to CS1; assay: ELISA of 8-mer peptides (pins) with rabbit serum; details: a listed pin number means recognized
Protocol: as §1, §2, §3, §4, §5, §6, §7, §8

[4] = tested on: Antibody to CS17; assay: ELISA of 8-mer peptides (pins) with rabbit serum; details: a listed pin number means recognized
Protocol: as §1, §2, §3, §4, §5, §6, §7, §8

[5] = tested on: Antibody to CS2; assay: ELISA of 8-mer peptides (pins) with rabbit serum; details: a listed pin number means recognized
Protocol: as §1, §2, §3, §4, §5, §6, §7, §8

[6] = tested on: Antibody to 0166 upper; assay: ELISA of 8-mer peptides (pins) with rabbit serum
Protocol: as §1, §2, §3, §4, §5, §6, §7, §8

[7] = tested on: Antibody to CFA/I; assay: ELISA of 8-mer peptides (pins) with rabbit serum
Protocol: as §1, §2, §3, §4, §5, §6, §7, §8

[8] = tested on: Antibody to 0166 lower; assay: ELISA of 8-mer peptides (pins) with rabbit serum; details: rabbit 1082, a listed pin number means recognized
Protocol: as §1, §2, §3, §4, §5, §6, §7, §8

LPSAVALT (listed as Escherichia coli) [compound 25]
reactivity of 8-mer peptides with antibodies from the rabbits [1]: most reactive
pins (8-aa peptide) recognized by serum ([2]; Antibody to CS4, rabbit 940): 25

LQADGSAL (listed as Escherichia coli) [compound 18]
pins (8-aa peptide) recognized by serum ([3]; Antibody to CS1, rabbit 1089): 18
pins (8-aa peptide) recognized by serum ([3]; Antibody to CS1, rabbit 1090): 18

NITVTASV (listed as Escherichia coli) [compound 4]
reactivity of 8-mer peptides with antibodies from the rabbits [1]: most reactive
pins (8-aa peptide) recognized by serum ([4]; Antibody to CS17, rabbit 1080): 4
pins (8-aa peptide) recognized by serum ([3]; Antibody to CS1, rabbit 1089): 4
pins (8-aa peptide) recognized by serum ([3]; Antibody to CS1, rabbit 1090): 4

PSAVALTY (listed as Escherichia coli) [compound 26]
interaction of peptides with the antibodies raised to the consensus peptide [1]: more reliably interactive
reactivity of 8-mer peptides with antibodies from the rabbits [1]: most reactive
pins (8-aa peptide) recognized by serum ([3]; Antibody to CS1, rabbit 1090): 26
pins (8-aa peptide) recognized by serum ([2]; Antibody to CS4, rabbit 938): 26

QADGSALP (listed as Escherichia coli) [compound 19]
pins (8-aa peptide) recognized by serum ([3]; Antibody to CS1, rabbit 1089): 19
pins (8-aa peptide) recognized by serum ([3]; Antibody to CS1, rabbit 1090): 19

SALPSAVA (listed as Escherichia coli) [compound 23]
reactivity of 8-mer peptides with antibodies from the rabbits [1]: most reactive
pins (8-aa peptide) recognized by serum ([3]; Antibody to CS1, rabbit 1090): 23

SAVALTYS (listed as Escherichia coli) [compound 27]
interaction of peptides with the antibodies raised to the consensus peptide [1]: more reliably interactive
reactivity of 8-mer peptides with antibodies from the rabbits [1]: most reactive
pins (8-aa peptide) recognized by serum ([3]; Antibody to CS1, rabbit 1090): 27

SVDPTIDL (listed as Escherichia coli) [compound 10]
interaction of peptides with the antibodies raised to the consensus peptide [1]: more reliably interactive
reactivity of 8-mer peptides with antibodies from the rabbits [1]: most reactive
pins (8-aa peptide) recognized by serum ([5]; Antibody to CS2, rabbit 1076): 10
pins (8-aa peptide) recognized by serum ([5]; Antibody to CS2, rabbit 1077): 10
pins (8-aa peptide) recognized by serum ([3]; Antibody to CS1, rabbit 1089): 10
pins (8-aa peptide) recognized by serum ([3]; Antibody to CS1, rabbit 1090): 10
pins (8-aa peptide) recognized by serum ([6]; rabbit 1081, a listed pin number means recognized): 10
pins (8-aa peptide) recognized by serum ([2]; Antibody to CS4, rabbit 938): 10
pins (8-aa peptide) recognized by serum ([2]; Antibody to CS4, rabbit 940): 10

TASVDPTI (listed as Escherichia coli) [compound 8]
reactivity of 8-mer peptides with antibodies from the rabbits [1]: most reactive
pins (8-aa peptide) recognized by serum ([5]; Antibody to CS2, rabbit 1076): 8
pins (8-aa peptide) recognized by serum ([5]; Antibody to CS2, rabbit 1077): 8
pins (8-aa peptide) recognized by serum ([4]; Antibody to CS17, rabbit 1084): 8
pins (8-aa peptide) recognized by serum ([3]; Antibody to CS1, rabbit 1090): 8
pins (8-aa peptide) recognized by serum ([2]; Antibody to CS4, rabbit 938): 8

TIDLLQAD (listed as Escherichia coli) [compound 14]
reactivity of 8-mer peptides with antibodies from the rabbits [1]: most reactive
pins (8-aa peptide) recognized by serum ([6]; rabbit 934, a listed pin number means recognized): 14
pins (8-aa peptide) recognized by serum ([7]; rabbit 1078, a listed pin number means recognized): 14
pins (8-aa peptide) recognized by serum ([7]; rabbit 1079, a listed pin number means recognized): 14
pins (8-aa peptide) recognized by serum [8]: 14
pins (8-aa peptide) recognized by serum ([2]; Antibody to CS4, rabbit 940): 14

TVTASVDP (listed as Escherichia coli) [compound 6]
pins (8-aa peptide) recognized by serum ([4]; Antibody to CS17, rabbit 1084): 6
pins (8-aa peptide) recognized by serum ([3]; Antibody to CS1, rabbit 1090): 6

VALTYSPA (listed as Escherichia coli) [compound 29]
reactivity of 8-mer peptides with antibodies from the rabbits [1]: most reactive
pins (8-aa peptide) recognized by serum ([3]; Antibody to CS1, rabbit 1089): 29
pins (8-aa peptide) recognized by serum ([3]; Antibody to CS1, rabbit 1090): 29

VEKNITVT (listed as Escherichia coli) [compound 1]
pins (8-aa peptide) recognized by serum ([4]; Antibody to CS17, rabbit 1084): 1
pins (8-aa peptide) recognized by serum ([2]; Antibody to CS4, rabbit 940): 1

VTASVDPT (listed as Escherichia coli) [compound 7]
pins (8-aa peptide) recognized by serum ([5]; Antibody to CS2, rabbit 1076): 7
pins (8-aa peptide) recognized by serum ([5]; Antibody to CS2, rabbit 1077): 7
pins (8-aa peptide) recognized by serum ([4]; Antibody to CS17, rabbit 1084): 7
pins (8-aa peptide) recognized by serum ([3]; Antibody to CS1, rabbit 1090): 7
